This note sets out measurements from ChEMBL document CHEMBL1201862, “PubChem BioAssay data set” (2004).

Among the test systems are M14; SK-MEL-28; U-251; HOP-62; SNB-19; SNB-75; Malme-3M; HOP-92; RXF 393; MOLT-4; EKVX; UACC-257; IGROV-1; CCRF-CEM; NCI-H460; OVCAR-3; OVCAR-8; SR; SK-MEL-2; HL-60.
What all share (experiment): growth of human tumour cells (NCI), 48 h

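How tested: cells in 96-well plates exposed to compound for 48 hours at five concentrations. GI50 is the concentration that inhibits growth by half.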 Calls of active or inactive are those of the source. No stated cut-off is given here; in the data, active = GI50 up to about 1.1 µM and inactive = higher. Bounds are passed on as bounds.

For the compound `CCn1c(=O)c2c3cc(OC(C)=O)ccc3oc2c2ccc(OC(C)=O)cc21`, the GI50 is 45.9 µM (inactive) in the assay on M14; 49 µM (inactive) in the assay with SK-MEL-28; 32.6 µM (inactive) in the assay with U-251; 37.9 µM (inactive) in the assay with HOP-62; 46.9 µM (inactive) with SNB-19; 2.69 µM (inactive) with SNB-75. The GI50 in the assay on Malme-3M is 39.4 µM (inactive); in the assay on HOP-92, 23.4 µM (inactive); with RXF 393, 37.2 µM (inactive); in the assay with MOLT-4, 23.6 µM (inactive); in the assay on EKVX, 21 µM (inactive); with UACC-257, 55.1 µM (inactive). Further, the GI50 is 38.9 µM (inactive) with IGROV-1; 17.2 µM (inactive) in the assay with CCRF-CEM; 21.8 µM (inactive) in the assay with NCI-H460; 39.8 µM (inactive) with OVCAR-3; 30.8 µM (inactive) in the assay with OVCAR-8; 36.3 µM (inactive) in the assay on SR.

In the case of `C[C@]12CC[C@H]3[C@@H](CCC4=C(Br)C(=O)C=C[C@@]43O)[C@@H]1CCC2=O`, the GI50 is 39.3 µM (inactive) with M14; 94.2 µM (inactive) in the assay on SK-MEL-28; 52.6 µM (inactive) in the assay with U-251; 50 µM (inactive) in the assay on HOP-62; 61 µM (inactive) in the assay with SNB-19; 93.5 µM (inactive) in the assay on Malme-3M. For the same compound, the GI50 is 32.2 µM (inactive) with HOP-92; 21.1 µM (inactive) in the assay on RXF 393; 25.2 µM (inactive) with MOLT-4; 61.2 µM (inactive) in the assay on EKVX; 16.9 µM (inactive) in the assay with UACC-257; 36 µM (inactive) in the assay on IGROV-1. The GI50 was 0.957 µM (active) in the assay on CCRF-CEM; 40.9 µM (inactive) in the assay on SK-MEL-2; 21.2 µM (inactive) in the assay with HL-60; 23.5 µM (inactive) in the assay with NCI-H460; 45.4 µM (inactive) in the assay on OVCAR-3; 25.8 µM (inactive) with OVCAR-8. Moreover, in the assay with SR, the GI50 is 8.34 µM (inactive).

Regarding `Cc1cc(Br)cc(C)c1NC(=O)C(=O)C(C(=O)c1ccncc1)C1OC(=O)c2ccccc21` (stereo not given), the GI50 in the assay on M14, in the assay on U-251, in the assay on HOP-62, in the assay on SNB-19, in the assay on Malme-3M and in the assay with HOP-92 was > 100 µM (inactive) in each case. In addition, the GI50 in the assay with RXF 393, in the assay with MOLT-4, with EKVX, with UACC-257, with IGROV-1 and in the assay on CCRF-CEM was > 100 µM (inactive) each time. Also, the GI50 in the assay with HL-60, in the assay on NCI-H460, in the assay on OVCAR-3, with OVCAR-8 and with SR was > 100 µM (inactive) throughout.

Take `O=C(O)CCN1C(=S)CSC1=S`: the GI50 in the assay on M14, in the assay on SK-MEL-28, with U-251, with HOP-62, with SNB-19 and in the assay on SNB-75 was > 100 µM (inactive) each time. For the same compound, the GI50 was > 100 µM (inactive) with Malme-3M; > 100 µM (inactive) in the assay with HOP-92; > 100 µM (inactive) with RXF 393; 42 µM (inactive) in the assay on MOLT-4; > 100 µM (inactive) in the assay on EKVX; > 100 µM (inactive) in the assay with UACC-257. Further, the GI50 with IGROV-1 is > 100 µM (inactive); with CCRF-CEM, 44.2 µM (inactive); with SK-MEL-2, > 100 µM (inactive); in the assay with NCI-H460, 88.1 µM (inactive); in the assay with OVCAR-3, > 100 µM (inactive); in the assay on OVCAR-8 it was > 100 µM (inactive). Also, in the assay on SR, the GI50 was 39.7 µM (inactive).

For the compound `CCOC(=O)C1(C#N)C(C#N)(C#N)C1(C#N)C#N`, the GI50 in the assay on M14, with SK-MEL-28, in the assay with U-251, in the assay on HOP-62, in the assay on SNB-19 and in the assay with Malme-3M was > 100 µM (inactive) each time. The GI50 with HOP-92, in the assay with RXF 393, with MOLT-4, with EKVX, with UACC-257 and in the assay on IGROV-1 was > 100 µM (inactive) throughout. Further, the GI50 is > 100 µM (inactive) in the assay on CCRF-CEM; > 100 µM (inactive) in the assay on SK-MEL-2; > 100 µM (inactive) in the assay with HL-60; > 100 µM (inactive) in the assay on NCI-H460; > 100 µM (inactive) with OVCAR-8; 88.5 µM (inactive) in the assay on SR.

Regarding `CCCCCCC(=O)OC[n+]1ccc2c(C)c3[nH]c4ccccc4c3c(C)c2c1`, the GI50 in the assay with M14 is 1.29 µM (inactive); with SK-MEL-28, 1.56 µM (inactive); in the assay with U-251, 0.552 µM (active); in the assay with HOP-62, 2.08 µM (inactive); with SNB-75 it was 1.85 µM (inactive); in the assay with Malme-3M, 1.61 µM (inactive). Besides, the GI50 was 3.18 µM (inactive) in the assay on HOP-92; 1 µM (active) with RXF 393; 0.118 µM (active) in the assay with MOLT-4; 0.403 µM (active) with EKVX; 1.79 µM (inactive) in the assay on UACC-257; 1.47 µM (inactive) in the assay with IGROV-1. Further, the GI50 with SK-MEL-2 was 5.38 µM (inactive); in the assay on HL-60, 2.23 µM (inactive); in the assay with NCI-H460 it was 0.0728 µM (active); in the assay with OVCAR-3, 1.21 µM (inactive); in the assay with OVCAR-8, 0.34 µM (active); in the assay with SR, 0.101 µM (active).

For the compound `CNC(=O)CCC(NC(=O)OC(C)(C)C)C(=O)NC(Cc1ccc(NC(=O)CCCCC(C)=O)cc1)C(=O)NCC(=O)NC` (stereo not given), the GI50 in the assay on M14, with SK-MEL-28, with U-251, in the assay on HOP-62, in the assay with SNB-19 and in the assay on SNB-75 was > 100 µM (inactive) in each case. In addition, the GI50 with Malme-3M, with HOP-92, in the assay with RXF 393, in the assay with MOLT-4, in the assay on EKVX and in the assay with IGROV-1 was > 100 µM (inactive) throughout. For the same compound, the GI50 in the assay with HL-60, in the assay on NCI-H460, in the assay on OVCAR-3, with OVCAR-8 and in the assay on SR was > 100 µM (inactive) in each case.

Take `N/N=c1/nc2n(c3ncccc13)C=CNN2`: the GI50 with SK-MEL-28, in the assay on U-251, in the assay on HOP-62, in the assay on SNB-19, with Malme-3M and in the assay on HOP-92 was > 100 µM (inactive) each time. The GI50 in the assay on RXF 393, in the assay on MOLT-4, with EKVX, with UACC-257, with IGROV-1 and in the assay on CCRF-CEM was > 100 µM (inactive) each time. In addition, the GI50 in the assay with SK-MEL-2, in the assay on HL-60, with NCI-H460, with OVCAR-3, in the assay on OVCAR-8 and with SR was > 100 µM (inactive) in each case.

As for `COc1cc2cc(C(=O)N3CC(CCl)c4c3cc(NCCN)c3ccccc43)[nH]c2c(OC)c1OC` (stereo not given), the GI50 in the assay with M14 was < 0.01 µM (active); in the assay on SK-MEL-28 it was 0.0134 µM (active); with U-251, < 0.01 µM (active); in the assay on HOP-62, < 0.01 µM (active); in the assay on SNB-19 it was < 0.01 µM (active); in the assay with SNB-75, 0.0102 µM (active). In addition, the GI50 was < 0.01 µM (active) in the assay on Malme-3M; < 0.01 µM (active) in the assay with HOP-92; < 0.01 µM (active) in the assay on RXF 393; < 0.01 µM (active) in the assay on MOLT-4; < 0.0126 µM (active) in the assay with EKVX; 0.0105 µM (active) in the assay on UACC-257. The GI50 in the assay with IGROV-1 is < 0.01 µM (active); with SK-MEL-2, < 0.01 µM (active); with NCI-H460, < 0.01 µM (active); with OVCAR-3, 0.0123 µM (active); in the assay with OVCAR-8 it was < 0.01 µM (active); in the assay with SR it was < 0.01 µM (active).

Take `COC(=O)c1c2c(cc3c1CC1(Cc4cc5c(c(C(C)=O)c4C1)CCCC5)C3)CCCC2` (stereo not given): the GI50 in the assay on M14, in the assay on U-251, with HOP-62, in the assay on Malme-3M, with HOP-92 and in the assay on RXF 393 was > 100 µM (inactive) in each case. Also, the GI50 with EKVX was > 100 µM (inactive); in the assay with UACC-257, 56 µM (inactive); with IGROV-1, > 100 µM (inactive); in the assay on CCRF-CEM, 29.2 µM (inactive); in the assay on SK-MEL-2 it was 21.4 µM (inactive); with HL-60 it was 12.6 µM (inactive). For the same compound, the figures for the GI50 in the assay with OVCAR-3, in the assay with OVCAR-8 and in the assay with SR were > 100 µM (inactive), > 100 µM (inactive) and 3.02 µM (inactive), respectively.

Regarding `Clc1ccc(/C=C/c2nc(-c3ccc(Cl)cc3)cn3c2nc2ccccc23)cc1`, the GI50 with M14, with SK-MEL-28, with U-251, in the assay with HOP-62, with SNB-19 and with Malme-3M was > 100 µM (inactive) each time. In addition, the GI50 is > 100 µM (inactive) in the assay with HOP-92; > 100 µM (inactive) in the assay with RXF 393; 45.1 µM (inactive) in the assay on MOLT-4; > 100 µM (inactive) in the assay on EKVX; > 100 µM (inactive) in the assay on UACC-257; 55.7 µM (inactive) with IGROV-1. Further, the GI50 in the assay with CCRF-CEM, in the assay on SK-MEL-2, in the assay with HL-60, in the assay with NCI-H460, in the assay with OVCAR-3 and in the assay on SR was > 100 µM (inactive) in each case.
